In patent US20170304388A1, “NEW INDICATION OF CARDIOVASCULAR DRUGS FOR PREPARATION OF CANCER INHIBITION PHARMACEUTICAL COMPOSITION” (LAUNX BIOMEDICAL CO., LTD., priority 2014, published 2017):

Experiments:
Format in all cases: cell-based
[1] = test system: TSGH-8301 (Urinary Bladder Carcinoma); experiment: Cell viability analysis (WST-1), TSGH-8301; details: Table 4, repeated experiments, drug 10 μM; for viability at 10 µM: 72 h, WST-1, read-out: survival rate (viability) of cancer cells, TSGH-8301
[2] = test system: H1650 (Lung Adenocarcinoma); experiment: Cell viability analysis (WST-1), H1650; details: Table 4, repeated experiments, drug 10 μM; for survival rate (viability) of cancer cells, H1650: 72 hours, WST-1; for viability at 10 µM: Homo sapiens, NCI-H1650, 72 h, WST-1, read-out: survival rate (viability) of cancer cells, H1650
[3] = test system: MCF7 (Mammary Gland, Adenocarcinoma); experiment: Cell viability analysis (WST-1), MCF7; details: Table 4, repeated experiments, drug 10 μM; for viability at 10 µM: Homo sapiens, MCF7, 72 h, WST-1, read-out: survival rate (viability) of cancer cells, MCF-7
C-33A = experiment: Cell viability analysis (WST-1), C-33A; details: Table 4, repeated experiments, drug 10 μM; for viability at 10 µM: Homo sapiens, C-33-A, 72 h, read-out: survival rate (viability) of cancer cells, C-33A
Method: (§1) Subculture the different types of cancer cells. The cancer cells includes lung cancer, gastric cancer, hepatic cancer, colon cancer, skin cancer, cervical cancer, prostate cancer, bladder cancer, breast cancer, leukemia, pancreatic cancer, ovarian cancer, tongue cancer, osteosarcoma, and renal cancer. The cell numbers were counted and reseed as 2×10^6 in cell culture plate/flask. Then, the culture medium for culturing the cell lines was added to a volume of 10 ml, and the cells were cultured for 2-3 days. Then, the cells were suspended for loading into 96-well plates. The cell number was 3000 cells and the volume of the culture medium was 100 ul each well.
(§2) Removing the original culture medium from 96-well plate. Then add 100 μl of commercially drug at a concentration of 10 μM per well. After 72 hours, add the diluted WST-1 reagent to the well with 100 μl/well, and the diluted WST-1 reagent was acquired from the dilution of 9:1 medium and WST-1 stock reagent. Finally, the total volume of each well are 200 μl/well. Culture the 96-well plate at 37° C. for 30 to 90 minutes. Detecting and calculating the survival rate of each cancer cells with an ELISA reader at OD450 nm. The lower viability of cancer cells represents better inhibition effect via the drugs. Otherwise, the higher viability of cancer cells represents worse inhibition effect via the drugs.
(§3) According to the above mentioned cardiovascular drugs for cancer growth inhibition in Table 3, the inventors took the repeat experiments for the cardiovascular drugs to check the growth inhibitory effects of cancer cells by the cardiovascular drugs. […] 4.

TOV-21G = experiment: Cell viability analysis (WST-1), TOV-21G; details: Table 4, repeated experiments, drug 10 μM; for survival rate (viability) of cancer cells, TOV-21G: 72 hours; for viability at 10 µM: Homo sapiens, TOV21G, 72 h, read-out: survival rate (viability) of cancer cells, TOV-21G
Method: as §1, §2, §3

SAS = experiment: Cell viability analysis (WST-1), SAS; details: Table 4, repeated experiments, drug 10 μM; for viability at 10 µM: 72 h, read-out: survival rate (viability) of cancer cells, SAS
Method: as §1, §2, §3

[4] = test system: HeLa (Cervix Adenocarcinoma); experiment: Cell viability analysis (WST-1), HeLa; details: Table 4, repeated experiments, drug 10 μM; for viability at 10 µM: Homo sapiens, HeLa, 72 h, WST-1, read-out: survival rate (viability) of cancer cells, HeLa
[5] = test system: MKN-45 (Gastric Adenocarcinoma); experiment: Cell viability analysis (WST-1), MKN-45; details: Table 4, repeated experiments, drug 10 μM; for viability at 10 µM: Homo sapiens, MKN-45, 72 h, WST-1, read-out: survival rate (viability) of cancer cells, MKN-45
MDA-MB231 = experiment: Cell viability analysis (WST-1), MDA-MB231; details: Table 4, repeated experiments, drug 10 μM; for viability at 10 µM: Homo sapiens, MDA-MB-231, 72 h, read-out: survival rate (viability) of cancer cells, MDA-MB231
NIH-OVCAR-3 = experiment: Cell viability analysis (WST-1), NIH-OVCAR-3; details: Table 4, repeated experiments, drug 10 μM; for viability at 10 µM: Homo sapiens, OVCAR-3, 72 h, read-out: survival rate (viability) of cancer cells, NIH-OVCAR-3
Method: as §1, §2, §3

AsPC-1 = experiment: Cell viability analysis (WST-1), AsPC-1; details: Table 4, repeated experiments, drug 10 μM; for viability at 10 µM: Homo sapiens, ASPC1, 72 h, read-out: survival rate (viability) of cancer cells, AsPC-1
Method: as §1, §2, §3

Hep3B = experiment: Cell viability analysis (WST-1), Hep3B; details: Table 4, repeated experiments, drug 10 μM; for survival rate (viability) of cancer cells, Hep3B: 72 hours; for viability at 10 µM: Homo sapiens, Hep3B, 72 h, read-out: survival rate (viability) of cancer cells, Hep3B
Method: as §1, §2, §3

BCC = experiment: Cell viability analysis (WST-1), BCC; details: Table 4, repeated experiments, drug 10 μM; for survival rate (viability) of cancer cells, BCC: 72 hours; for viability at 10 µM: BCC, 72 h, read-out: survival rate (viability) of cancer cells, BCC
[6] = test system: LoVo (Colorectal Adenocarcinoma); experiment: Cell viability analysis (WST-1), LoVo; details: Table 4, repeated experiments, drug 10 μM; for viability at 10 µM: Homo sapiens, LoVo, 72 h, WST-1, read-out: survival rate (viability) of cancer cells, LoVo
[7] = test system: HepG2 (Hepatocellular Carcinoma); experiment: Cell viability analysis (WST-1), HepG2; details: Table 4, repeated experiments, drug 10 μM; for survival rate (viability) of cancer cells, HepG2: 72 hours, WST-1; for viability at 10 µM: Homo sapiens, HepG2, 72 h, WST-1, read-out: survival rate (viability) of cancer cells, HepG2
[8] = test system: A549 (Lung Adenocarcinoma); experiment: Cell viability analysis (WST-1), A549; details: Table 4, repeated experiments, drug 10 μM; for survival rate (viability) of cancer cells, A549: 72 hours, WST-1; for viability at 10 µM: Homo sapiens, A549, 72 h, WST-1, read-out: survival rate (viability) of cancer cells, A549
U2OS = experiment: Cell viability analysis (WST-1), U2OS; details: Table 4, repeated experiments, drug 10 μM; for viability at 10 µM: Homo sapiens, U2OS, 72 h, read-out: survival rate (viability) of cancer cells, U2OS
Method: as §1, §2, §3

786-O = experiment: Cell viability analysis (WST-1), 786-O; details: Table 4, repeated experiments, drug 10 μM; for viability at 10 µM: Homo sapiens, 786-0, 72 h, read-out: survival rate (viability) of cancer cells, 786-O
Method: as §1, §2, §3

[9] = test system: AGS (Gastric Adenocarcinoma); experiment: Cell viability analysis (WST-1), AGS; details: Table 4, repeated experiments, drug 10 μM; for viability at 10 µM: 72 h, WST-1, read-out: survival rate (viability) of cancer cells, AGS
[10] = test system: HCT116 (Colorectal Carcinoma); experiment: Cell viability analysis (WST-1), HCT116; details: Table 4, repeated experiments, drug 10 μM; for viability at 10 µM: Homo sapiens, HCT-116, 72 h, WST-1, read-out: survival rate (viability) of cancer cells, HCT116
[11] = test system: A375 (Amelanotic Melanoma); experiment: Cell viability analysis (WST-1), A375; details: Table 4, repeated experiments, drug 10 μM; for survival rate (viability) of cancer cells, A375: 72 hours, WST-1; for viability at 10 µM: Homo sapiens, A-375, 72 h, WST-1, read-out: survival rate (viability) of cancer cells, A375
[12] = test system: PC3 (Prostate Adenocarcinoma); experiment: Cell viability analysis (WST-1), PC3; details: Table 4, repeated experiments, drug 10 μM; for viability at 10 µM: 72 h, WST-1, read-out: survival rate (viability) of cancer cells, PC-3
T24 = experiment: Cell viability analysis (WST-1), T24; details: Table 4, repeated experiments, drug 10 μM; for viability at 10 µM: Homo sapiens, T-24, 72 h, read-out: survival rate (viability) of cancer cells, T24
Method: as §1, §2, §3

BxPC-3 = experiment: Cell viability analysis (WST-1), BxPC-3; details: Table 4, repeated experiments, drug 10 μM; for viability at 10 µM: Homo sapiens, BXPC-3, 72 h, read-out: survival rate (viability) of cancer cells, BxPC-3
Method: as §1, §2, §3

cancer cell lines = experiment: Growth inhibitory effects on the panel of cancer cell lines; details: drug 10 μM, 72 hours, WST-1
Text: For cell viability analysis, the cardiovascular drugs include peripheral vasodilator reaming enhancer, angiotensin converting agent inhibitor, hypotension and shock therapeutic agent, diuretic, antiarrhythmic agent, antiarralciton drug, antihypertensive agent, anticoagulant thrombolytic agent, cardiac tonic, intravenous (hemorrhoids) therapeutic agent, are used to test the inhibition effect of cancer cell.

SMILES	viability at 10 µM [1]	viability at 10 µM (SAS)	viability at 10 µM [5]	viability at 10 µM (U2OS)	viability at 10 µM (786-O)	viability at 10 µM [9]	viability at 10 µM (T24)	viability at 10 µM (BxPC-3)	viability at 10 µM [3]	viability at 10 µM (C-33A)	viability at 10 µM (MDA-MB231)	viability at 10 µM (NIH-OVCAR-3)	viability at 10 µM (AsPC-1)	viability at 10 µM [6]	viability at 10 µM [10]	viability at 10 µM [12]	viability at 10 µM [2]	viability at 10 µM (TOV-21G)	viability at 10 µM [4]	viability at 10 µM (Hep3B)	other results
CCOC(=O)C1=C(COCCN)NC(C)=C(C(=O)OC)C1c1ccccc1Cl (stereo not drawn) [Amlodipine (Norvase), Amlodipine]	36.2%	99.2%	88.2%	78.9%	81.4%	16.5%	96.6%	86%	–	–	–	–	–	–	–	–	–	–	–	–	survival rate (viability) of cancer cells, H1650 [2]: 72.01; survival rate (viability) of cancer cells, MCF-7 ([3]; 72 hours, WST-1): 63.42; survival rate (viability) of cancer cells, C-33A (C-33A; 72 hours): 38.18; survival rate (viability) of cancer cells, TOV-21G (TOV-21G): 61.32; survival rate (viability) of cancer cells, HeLa ([4]; 72 hours, WST-1): 86.96; survival rate (viability) of cancer cells, MDA-MB231 (MDA-MB231; 72 hours): 87.55; survival rate (viability) of cancer cells, NIH-OVCAR-3 (NIH-OVCAR-3; 72 hours): 90.31; survival rate (viability) of cancer cells, AsPC-1 (AsPC-1; 72 hours): 89.04; survival rate (viability) of cancer cells, Hep3B (Hep3B): 99.22; survival rate (viability) of cancer cells, BCC (BCC): 74.9299; survival rate (viability) of cancer cells, LoVo ([6]; 72 hours, WST-1): 90.33; survival rate (viability) of cancer cells, HepG2 [7]: 71.76; survival rate (viability) of cancer cells, A549 [8]: 89.22; survival rate (viability) of cancer cells, HCT116 ([10]; 72 hours, WST-1): 91.96; survival rate (viability) of cancer cells, A375 [11]: 81.58; survival rate (viability) of cancer cells, PC-3 ([12]; 72 hours, WST-1): 85.88
CCOC(=O)C1=C(COCCN)NC(C)=C(C(=O)OC)C1c1ccccc1Cl (stereo not drawn) [Amlodipine besylate (Norvase), Amlodipine besylate]	–	–	–	–	–	–	–	–	80.5%	33.7%	82.7%	91.6%	87.8%	85.6%	78.3%	73.6%	–	–	–	–	survival rate (viability) of cancer cells, TSGH-8301 ([1]; 72 hours, WST-1): 36.2492; survival rate (viability) of cancer cells, H1650 [2]: 110.2477; survival rate (viability) of cancer cells, TOV-21G (TOV-21G): 93.55; survival rate (viability) of cancer cells, SAS (SAS; 72 hours): 94.7983; survival rate (viability) of cancer cells, MKN-45 ([5]; 72 hours, WST-1): 86.43; survival rate (viability) of cancer cells, Hep3B (Hep3B): 123.4192; survival rate (viability) of cancer cells, BCC (BCC): 102.9778; survival rate (viability) of cancer cells, HepG2 [7]: 95.01; survival rate (viability) of cancer cells, A549 [8]: 110.3104; survival rate (viability) of cancer cells, U2OS (U2OS; 72 hours): 71.06; inhibition effect on different cancer cell lines (in words) (cancer cell lines): significant inhibition effect; survival rate (viability) of cancer cells, 786-O (786-O; 72 hours): 73.16; survival rate (viability) of cancer cells, AGS ([9]; 72 hours, WST-1): 12.18; survival rate (viability) of cancer cells, A375 [11]: 136.6675; survival rate (viability) of cancer cells, T24 (T24; 72 hours): 93.08; survival rate (viability) of cancer cells, BxPC-3 (BxPC-3; 72 hours): 99.11
CC(C)n1c(/C=C/C(O)CC(O)CC(=O)O)c(-c2ccc(F)cc2)c2ccccc21 (stereo not drawn) [Fluvastatin sodium (Lescol), Fluvastatin sodium]	78.2%	81.5%	65.3%	91.2%	23.6%	52%	71.8%	79.1%	82.5%	89.5%	43%	84.7%	83.6%	100%	55%	32.1%	73.1%	50.5%	54.3%	109%	viability at 10 µM (BCC): 27%; viability at 10 µM [7]: 104%; viability at 10 µM [8]: 98.8%; viability at 10 µM [11]: 21.8%
COC(=O)C1=C(C)NC(C)=C(C(=O)OCC(C)C)C1c1ccccc1[N+](=O)[O-] (stereo not drawn) [Nisoldipine (Sular), Nisoldipine]	77.9%	48.8%	98%	69.1%	49.5%	64.7%	67.8%	75.6%	86.6%	66%	74.1%	68.1%	78.8%	76.9%	77.4%	98.9%	70%	44.4%	76.9%	130%	viability at 10 µM (BCC): 58.8%; viability at 10 µM [7]: 95.5%; viability at 10 µM [8]: 48.9%; viability at 10 µM [11]: 51.5%
C[C@@H]1O[C@@H](O[C@H]2C[C@@H](O)[C@]3(CO)[C@H]4[C@H](O)C[C@]5(C)[C@@H](C6=CC(=O)OC6)CC[C@]5(O)[C@@H]4CC[C@]3(O)C2)[C@H](O)[C@H](O)[C@H]1O [Ouabain]	43.6%	20.2%	53%	22.8%	14.5%	16.6%	17.6%	27%	29.1%	35.5%	44.5%	42.3%	20.1%	39.7%	15.9%	25.8%	38.7%	15.9%	23.1%	33.4%	viability at 10 µM (BCC): 25.6%; viability at 10 µM [7]: 38.1%; viability at 10 µM [8]: 15.1%; viability at 10 µM [11]: 18.4%
